Measured values reported in patent US10689377B2 (Mirati Therapeutics, Inc., priority 2017, dated 2020).
pIC50: −log10 of the molar value. Where two headings read alike, the source gives them in different places.

Columns and labels:
[1] = target: KRas G12C (Homo sapiens, UniProt P01116, G12C); test: Cellular inhibition of KRas G12C measured by Phospho-ERK in NCI-H358 cells; assay type: cell-based; conditions: pERK(Thr202/Tyr204) normalized with GAPDH, NCI-H358 cells, 3 hours; read-out: IC50
How it was run: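 Ratio of phospho-ERK(Thr202/Tyr204) to GAPDH, read by near-infrared secondary antibodies on fixed, permeabilised NCI-H358 cells, expressed relative to DMSO control. Compound exposure was 3 h at 0.5% DMSO. IC50 values come from 4-parameter curve fits.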

[2] = In vitro stability in human whole blood; assay type: in vitro ADME; conditions: male, whole blood diluted to 50% with PBS, 37° C.
Source text: Materials: The following reagents were used as received: acetonitrile (HPLC grade, Burdick & Jackson, Madison, Wis.), phosphate buffered saline (PBS), pH 7.4 (Sigma-Aldrich, Co., St. Louis, Mo.), water (HPLC grade, JT Baker, Phillipsburg, N.J.), DMSO (EM Science, Merck KGaA, Darmstadt, Germany) and isopropanol (IPA, reagent grade, EMD Chemicals, Gibbstown, N.J.). Propantheline and esmolol (Sigma-Aldrich) were used as the positive control compounds in the assay. Diazepam (Sigma-Aldrich) was used as an internal standard for quantitation. Human whole blood was obtained from BioIVT (Westbury, N.Y.) […]. All other reagents and solvents were of the highest analytical grade supplied by Sigma (St. Louis, Mo.) and were used as received.
Blood Incubations: The in vitro stability of representative KRas G12C inhibitor compounds of the present invention in the presence whole blood was conducted in the following manner. Esmolol or propantheline, which are known to undergo ester hydrolysis by esterases in blood and plasma, were used as the positive controls in the assays. A 10 mM stock solution of propantheline, esmolol, or a compound of the present invention in DMSO was diluted to 500 μM with DMSO. Aliquots of whole blood (600 μL), in triplicate, were placed in the appropriate wells of a polypropylene 96-deep well plate (Axygen Scientific, Union City, Calif.). The blood was diluted to 50% using PBS, pH 7.4 (600 μL). The diluted blood was pre-incubated for 15 minutes at 37° C. Each well was dosed with 12 μL of the 500 μM DMSO stock simultaneously for a final test concentration of 5 μM. The plates were mixed at 600 rpm for 10 seconds on a plate shaker (IKA MTS 2/4 Digital Microtiter Shaker, VWR). Aliquots of 100 μL from each well of whole blood were transferred to three separate 96-deep well plates labeled 0, 60, or 240 minutes. At the end of each designated time point, the red blood cells were lysed with 100 μL of water, mixed at 600 rpm for one minute, and stopped with 800 μL of acetonitrile containing IS (0.625 μM diazepam). The plates were mixed on the plate shaker at 600 rpm for one minute and spun in a centrifuge at 2095×g for 7 minutes at room temperature using an Allegra benchtop centrifuge (Beckman Coulter, Fullerton, Calif.). Supernatant (100 μL) was transferred to a shallow 96-well plate (Costar) using a liquid sample handling system (Apricot, Perkin-Elmer, Boston, Mass.). The addition of 100 μL of water was added to each sample of supernatant for a final volume of 200 μL. The plates were sealed and the contents of each well were analyzed by LC-MS/MS.
Analytical quantitation: The LC-MS/MS system was comprised of an HTS-PAL autosampler (Leap Technologies, Carrboro, N.C.), an HP1200 HPLC (Agilent, Palo Alto, Calif.), and an API4000 triple quadrupole mass spectrometer (PE Sciex, a division of Applied Biosystems, Foster City, Calif.). […] The total run time, including re-equilibration, for a single injection was 2 minutes. Mass spectrometric detection of the analytes was accomplished using the ESI ionization mode. Ion current was optimized during infusion of a stock solution of propantheline, esmolol, or the representative test compound. Analyte responses, including the IS were measured by multiple reaction monitoring (MRM) of transitions unique to each compound.
Calculations: Data were acquired and peak areas were calculated for test compounds and the internal standard using Analyst 1.6.2 software (Sciex). The mean peak area ratios were calculated by averaging the peak area ratios (n=3) of each test compound and the IS for each sample.
Peak area tables were exported to BioAssay Enterprise (CambridgeSoft, Cambridge, Mass.), where the average analyte-to-internal standard peak area ratios were used to calculate percent remaining (% REM) and half-life (t1/2). Percent remaining (f) was calculated by determining the ratio of the peak area ratio at each time point to the peak area ratio of the time-zero samples. […]

[3] = pH 7.4, human whole blood diluted to 50% with PBS, 5 μM, 240-minute incubation, read-out: Compound Half-life

Sequence of KRas G12C (P01116 1-188 isoform P01116-2 G12C): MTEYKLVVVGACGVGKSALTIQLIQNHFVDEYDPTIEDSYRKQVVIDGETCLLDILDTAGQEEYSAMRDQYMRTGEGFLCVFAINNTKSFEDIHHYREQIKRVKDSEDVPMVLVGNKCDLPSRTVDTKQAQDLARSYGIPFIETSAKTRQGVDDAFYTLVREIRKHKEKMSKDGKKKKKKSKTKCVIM

Row | Structure (SMILES) | pIC50 [1] | half-life at 5 µM [2, 3] [h] | half-life at 5 µM ([2]; pH 7.4, human whole blood, positive control, read-out: half life) [h]
1 | CN(C)C/C=C/C(=O)N1CCN(c2nc(OC[C@@H]3CCCN3C)nc3c2CCN(c2cccc4ccccc24)C3)C[C@@H]1CC#N [Example 235, 2-((S)-1-((E)-4-(dimethylamino)but-2-enoyl)-4-(2-(((S)-1-methylpyrrolidin-2-yl)methoxy)-7-(naphthalen-1-yl)-5,6,7,8-tetrahydropyrido[3,4-d]pyrimidin-4-yl)piperazin-2-yl)acetonitrile] | 6.00 to 10.00 | > 33.3 | 
2 | CN1CCC[C@H]1COc1nc2c(c(N3CCN(C(=O)/C=C/CN4CCCCC4)[C@@H](CC#N)C3)n1)CCN(c1cccc3ccccc13)C2 [Example 236, 2-((S)-4-(2-(((S)-1-methylpyrrolidin-2-yl)methoxy)-7-(naphthalen-1-yl)-5,6,7,8-tetrahydropyrido[3,4-d]pyrimidin-4-yl)-1-(E-4-(piperidin-1-yl)but-2-enoyl)piperazin-2-yl)acetonitrile] | 6.00 to 10.00 | 3.33 to 16.7 | 
3 | C=CC(=O)N1CCN(c2nc(OC[C@@H]3CCCN3C)nc3c2CCN(c2cccc4cccc(Cl)c24)C3)C[C@@H]1CC#N [Example 331, 2-[(2S)-4-[7-(8-chloro-1-naphthyl)-2-[[(2S)-1-methylpyrrolidin-2-yl]methoxy]-6,8-dihydro-5H-pyrido[3,4-d]pyrimidin-4-yl]-1-prop-2-enoyl-piperazin-2-yl]acetonitrile] |  | 3.33 to 16.7 | 
4 | C=CC(=O)N1CCN(c2nc(OC[C@@H]3CCCN3C)nc3c2CCN(c2cccc4cccc(C)c24)C3)C[C@@H]1CC#N [Example 359, 2-[(2S)-4-[7-(8-methyl-1-naphthyl)-2-[[(2S)-1-methylpyrrolidin-2-yl]methoxy]-6,8-dihydro-5H-pyrido[3,4-d]pyrimidin-4-yl]-1-prop-2-enoyl-piperazin-2-yl]acetonitrile] | 6.00 to 10.00 | 3.33 to 16.7 | 
5 | CN1CCC[C@H]1COc1nc2c(c(N3CCN(C(=O)/C=C/CN4CCOCC4)[C@@H](CC#N)C3)n1)CCN(c1cccc3cccc(Cl)c13)C2 [Example 367, 2-[(2S)-4-[7-(8-chloro-1-naphthyl)-2-[[(2S)-1-methylpyrrolidin-2-yl]methoxy]-6,8-dihydro-5H-pyrido[3,4-d]pyrimidin-4-yl]-1-[(E)-4-morpholinobut-2-enoyl]piperazin-2-yl]acetonitrile] | 6.00 to 10.00 | 16.7 to 33.3 | 
6 | C/C=C/C(=O)N1CCN(c2nc(OC[C@@H]3CCCN3C)nc3c2CCN(c2cccc4cccc(C)c24)C3)C[C@@H]1CC#N [Example 372] | 6.00 to 10.00 | > 33.3 | 
7 | C=C(F)C(=O)N1CCN(c2nc(OC[C@@H]3CCCN3C)nc3c2CCN(c2cccc4cccc(Cl)c24)C3)C[C@@H]1CC#N [Example 478, 2-[(2S)-4-[7-(8-chloro-1-naphthyl)-2-[[(2S)-1-methylpyrrolidin-2-yl]methoxy]-6,8-dihydro-5H-pyrido[3,4-d]pyrimidin-4-yl]-1-(2-fluoroprop-2-enoyl)piperazin-2-yl]acetonitrile] |  | > 33.3 | 
8 | CN1CCC[C@H]1COc1nc2c(c(N3CCN(C(=O)/C=C/CF)[C@@H](CC#N)C3)n1)CCN(c1cccc3cccc(Cl)c13)C2 [Example 479, 2-[(2S)-4-[7-(8-chloro-1-naphthyl)-2-[[(2S)-1-methylpyrrolidin-2-yl]methoxy]-6,8-dihydro-5H-pyrido[3,4-d]pyrimidin-4-yl]-1-[(E)-4-fluorobut-2-enoyl]piperazin-2-yl]acetonitrile] | 6.00 to 10.00 | > 33.3 | 
9 | CN1CCC[C@H]1COc1nc2c(c(N3CCN(C(=O)/C=C/CN4CCC(F)C4)[C@@H](CC#N)C3)n1)CCN(c1cccc3cccc(Cl)c13)C2 (stereo partly drawn) [Example 480, 2-[(2S)-4-[7-(8-chloro-1-naphthyl)-2-[[(2S)-1-methylpyrrolidin-2-yl]methoxy]-6,8-dihydro-5H-pyrido[3,4-d]pyrimidin-4-yl]-1-[(E)-4-(3-fluoropyrrolidin-1-yl)but-2-enoyl]piperazin-2-yl]acetonitrile] | 6.00 to 10.00 | > 33.3 | 
10 | CN1CCC[C@H]1COc1nc2c(c(N3CCN(C(=O)/C=C/CN4CC(F)C4)[C@@H](CC#N)C3)n1)CCN(c1cccc3cccc(Cl)c13)C2 [Example 481, 2-[(2S)-4-[7-(8-chloro-1-naphthyl)-2-[[(2S)-1-methylpyrrolidin-2-yl]methoxy]-6,8-dihydro-5H-pyrido[3,4-d]pyrimidin-4-yl]-1-[(E)-4-(3-fluoroazetidin-1-yl)but-2-enoyl]piperazin-2-yl]acetonitrile] | 6.00 to 10.00 | > 33.3 | 
11 | CN(C/C=C/C(=O)N1CCN(c2nc(OC[C@@H]3CCCN3C)nc3c2CCN(c2cccc4cccc(Cl)c24)C3)C[C@@H]1CC#N)CC(F)(F)F [Example 482, 2-[(2S)-4-[7-(8-chloro-1-naphthyl)-2-[[(2S)-1-methylpyrrolidin-2-yl]methoxy]-6,8-dihydro-5H-pyrido[3,4-d]pyrimidin-4-yl]-1-[(E)-4-[methyl(2,2,2-trifluoroethyl)amino]but-2-enoyl]piperazin-2-yl]acetonitrile] | 6.00 to 10.00 | > 33.3 | 
12 | CN1CCC[C@H]1COc1nc2c(c(N3CCN(C(=O)/C=C/C(F)F)[C@@H](CC#N)C3)n1)CCN(c1cccc3cccc(Cl)c13)C2 [Example 484, 2-[(2S)-4-[7-(8-chloro-1-naphthyl)-2-[[(2S)-1-methylpyrrolidin-2-yl]methoxy]-6,8-dihydro-5H-pyrido[3,4-d]pyrimidin-4-yl]-1-[(E)-4,4-difluorobut-2-enoyl]piperazin-2-yl]acetonitrile] | 6.00 to 10.00 | ≤ 3.33 | 
13 | Cc1cccc2cccc(N3CCc4c(nc(OC[C@@H]5CCCN5C)nc4N4CCN(C(=O)/C=C/CN5CC(F)C5)[C@@H](CC#N)C4)C3)c12 [Example 515, 2-[(2S)-1-[(E)-4-(3-fluoroazetidin-1-yl)but-2-enoyl]-4-[7-(8-methyl-1-naphthyl)-2-[[(2S)-1-methylpyrrolidin-2-yl]methoxy]-6,8-dihydro-5H-pyrido[3,4-d]pyrimidin-4-yl]piperazin-2-yl]acetonitrile] |  | > 33.3 | 
14 | COC/C=C/C(=O)N1CCN(c2nc(OC[C@H]3C[C@@H](OC)CN3C)nc3c2CCN(c2cccc4cccc(C)c24)C3)C[C@@H]1CC#N [Example 552, 2-[(2S)-1-[(E)-4-methoxybut-2-enoyl]-4-[2-[[(2R,4R)-4-methoxy-1-methyl-pyrrolidin-2-yl]methoxy]-7-(8-methyl-1-naphthyl)-6,8-dihydro-5H-pyrido[3,4-d]pyrimidin-4-yl]piperazin-2-yl]acetonitrile] |  | > 33.3 | 
15 | C=C(F)C(=O)N1CCN(c2nc(OC[C@H]3CCCN3C)nc3c2CCN(c2cccc4cccc(Cl)c24)C3)C[C@@H]1CC#N [Example 557, 2-[(2S)-4-[7-(8-Chloro-1-naphthyl)-2-[[(2R)-1-methylpyrrolidin-2-yl]methoxy]-6,8-dihydro-5H-pyrido[3,4-d]pyrimidin-4-yl]-1-(2-fluoroprop-2-enoyl)piperazin-2-yl]acetonitrile] |  | > 33.3 | 
16 | CC(C)[N+](C)(CCOC(=O)C1c2ccccc2Oc2ccccc21)C(C)C [Propantheline, reference compound] |  | ≤ 3.33 | 1.63
